Results published in patent US7704701B2, “Diagnosis of prostate cancer with SPAS-1 cancer antigen” (The Regents of the University of California, priority 2000, dated 2010).

Assays:
CD8+ T cells [1] = assay: IFN-γ production (ELISA) by FL-9-primed CD8+ T cells in response to titrated peptide pulsed onto THP-1 cells; format: cell-based, human; conditions: fourteen days after first stimulation
Method: FIG. 24. […] A) Monocyte-derived DCs from HLA-A2+ healthy donors were pulsed with HuSPAS-1 peptide 4 (FL-9) and then incubated with autologous PBMC. Following another in vitro restimulation, T cell cultures were then assessed for their capacity to produce IFN-γ in response to titrated doses of peptide 4 (FL-9), pulsed onto the HLA-A2 expressing cell line THP-1. IFN-γ was assessed by ELISA on the cell supernatants in triplicate wells. […] (100,000 CD8+ T cells/well and 50,000 THP-1 cells/well). […] Responsiveness of the FL-9-reactive CD8+ T cell line was assessed by co-culturing 100,000 CD8+ T cells with titrated numbers of infected THP-1 cells.
Monocyte-derived DCs from HLA-A2+ healthy donors were pulsed with HuSPAS-1 peptide 4 (FL-9) and then incubated with autologous PBMC. Following another in vitro restimulation, T cell cultures were then assessed for their capacity to produce IFN-γ in response to titrated doses of peptide 4 (FL-9), pulsed onto the HLA-A2 expressing cell line THP-1. IFN-γ was assessed by ELISA on the cell supernatants in triplicate wells. […] Responsiveness of the FL-9-reactive CD8+ T cell line was assessed by co-culturing 100,000 CD8+ T cells with titrated numbers of infected THP-1 cells.

CD8+ T cells [2] = assay: IFN-γ production (ELISA) by in vitro primed T cell cultures in response to peptide pulsed onto A221 cells; format: cell-based, human; conditions: HLA-A2+ healthy donors
Text: (§1) FIG. 21: Strategy for the generation of human cytotoxic T lymphocytes (CTLs) specific for candidate human SPAS-1 peptides: In order to determine whether CD8+ T cells specific for human SPAS-1 peptides are present in the periphery of healthy individuals we used an in vitro priming strategy. Briefly, immature Myeloid Dendritic Cells (mDCs) were generated from culturing monocytes isolated from Peripheral Blood Mononuclear Cells (PBMCs) of a healthy HLA-A2+ donor for 5 days in GM-CSF and IL-4.
Following another in vitro restimulation, T cell cultures were assessed for their capacity to produce IFN-γ in response to the corresponding peptide, pulsed onto the HLA-A2 expressing cell line A221. IFN-γ was assessed by ELISA on the cell supernatants in triplicate wells.
as §1, with “In” for “FIG. 21: Strategy for the generation of human cytotoxic T lymphocytes (CTLs) specific for candidate human SPAS-1 peptides: In”

Sequence | IFN-γ production in response to increasing doses of peptide (CD8+ T cells [1]) | immunogenicity: IFN-γ production in response to the corresponding peptide (CD8+ T cells [2])
LLADELITV (H. sapiens) [P1] | not | 
FLTPLRNFL (H. sapiens) [P4] | specifically produced IFN-γ | Immunogenic
